Laboratory results from patent US20030100595A1, “Oral dosage form of a sulfonamide prodrug” (priority 2001, published 2003).

Experiments:
[1] = Human pharmacokinetic study: valdecoxib blood plasma concentration by HPLC; assay type: in vivo
Description: Subjects drank 180 ml water one, two and three hours postdose. […] Rapid onset is a highly desirable feature of many therapies for COX-2 mediated disorders, particularly those accompanied by acute pain. […] Each subject received each of three treatments, in randomized sequence, treatments being separated by 15 days. […] Following each treatment, subjects drank 180 ml water one, two and three hours after the treatment.

[2] = background statement, in words; cited from earlier work
COX-1 = COX-1 (Homo sapiens, UniProt P23219); conditions: background statement, in words; cited from earlier work
Sequence of COX-1 (P23219 24-599): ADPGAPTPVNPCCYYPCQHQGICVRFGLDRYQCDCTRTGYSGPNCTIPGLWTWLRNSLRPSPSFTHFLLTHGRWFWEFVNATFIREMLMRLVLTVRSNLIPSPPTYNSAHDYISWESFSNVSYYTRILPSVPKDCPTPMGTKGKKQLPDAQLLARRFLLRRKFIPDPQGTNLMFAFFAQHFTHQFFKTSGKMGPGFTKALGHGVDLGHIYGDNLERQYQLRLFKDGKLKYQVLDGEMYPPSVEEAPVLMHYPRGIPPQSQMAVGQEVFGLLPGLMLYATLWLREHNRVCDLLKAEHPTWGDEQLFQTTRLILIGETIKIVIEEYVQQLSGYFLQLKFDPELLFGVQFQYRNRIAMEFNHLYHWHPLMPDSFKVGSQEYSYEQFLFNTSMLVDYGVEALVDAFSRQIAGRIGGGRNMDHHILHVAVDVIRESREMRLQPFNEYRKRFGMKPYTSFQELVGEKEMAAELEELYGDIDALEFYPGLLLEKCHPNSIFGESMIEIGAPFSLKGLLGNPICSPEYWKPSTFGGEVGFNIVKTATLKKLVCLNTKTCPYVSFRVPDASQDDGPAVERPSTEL

Compound | Tmax ([1]; male, human, plasma, po, 20 mg) [h] | half-life ([1]; male, human, plasma, po, 20 mg) [h] | water solubility [2] | in vitro inhibitory activity against COX-1 (COX-1) | conversion of parecoxib to valdecoxib ([1]; administered orally to a human subject)
Cc1onc(-c2ccccc2)c1-c1ccc(S(N)(=O)=O)cc1 [valdecoxib] | 3.11 | 7.69 ± 2.45 | substantially water-insoluble | weak | 
CCC(=O)NS(=O)(=O)c1ccc(-c2c(-c3ccccc3)noc2C)cc1 [parecoxib] |  |  | high | weak | rapidly and completely converted to valdecoxib
